Assay results taken from publication PMC13070491, “Single-nucleus transcriptomics, pharmacokinetics, and pharmacodynamics of CDK4/6 and mTOR inhibition in a Phase 0/1 trial of recurrent high-grade glioma” (Neuro-Oncology, 2025).
Several values for one entry are separate records, joined by “and”; a condition that tells them apart may be missing. Equal values may be shown once.

Experiment: CNS penetration: total and unbound drug concentrations in tumor regions, CSF and plasma (LC-MS/MS, equilibrium dialysis);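 note: drug levels in patient tumor tissue from contrast-enhancing and non-enhancing regions sampled under MRI-guided neuronavigation, with plasma and CSF drawn during surgical resection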
Conditions: for Ribociclib.CSF / Ribociclib.Non-enhancing.tumor / Ribociclib.Plasma.conc / Ribociclib.Unbound.CSF / Ribociclib.Unbound.enhancing: per patient; for Kp at 120 h / Kp uu at 120 h / concentration at 5 days: human
[1] = Level 0: Ribociclib 400mg QD + Everolimus 2.5mg QD, sampling 1-3 Hours
[2] = Level 0: Ribociclib 400mg QD + Everolimus 2.5mg QD, sampling 23-25 Hours
[3] = Level 1: Ribociclib 600mg QD + Everolimus 2.5mg QD, sampling 1-3 Hours
[4] = Level 1: Ribociclib 600mg QD + Everolimus 2.5mg QD, sampling 7-9 Hours
[5] = Level 2: Ribociclib 600mg QD + Everolimus 5mg QD, sampling 7-9 Hours
[6] = Level 3: Ribociclib 600mg QD + Everolimus 10mg QD, sampling 7-9 Hours
[7] = Level 4: Ribociclib 600mg QD + Everolimus 50mg once on Day 5, sampling 7-9 Hours
[8] = Level 5: Ribociclib 600mg QD + Everolimus 60mg once on Day 5, sampling 7-9 Hours
[9] = Level 6: Ribociclib 600mg QD + Everolimus 70mg once on Day 5, sampling 7-9 Hours
[10] = enhancing tumor / plasma, oral, 400 mg
[11] = enhancing tumor / plasma, oral, 600 mg
[12] = non-enhancing tumor / plasma, oral, 400 mg
[13] = non-enhancing tumor / plasma, oral, 600 mg

Question: Which results are given for `CN(C)C(=O)c1cc2cnc(Nc3ccc(N4CCNCC4)cn3)nc2n1C1CCCC1` [Ribociclib, ribociclib]?
Answer: Total Ribociclib concentration, CSF, Minimum (400 mg QD 5 days): 36 nM; Total Ribociclib concentration, CSF, Maximum (600 mg QD 5 days): 714 nM; Total Ribociclib concentration, CSF, Median (600 mg QD 5 days): 276 nM; Total Ribociclib concentration, CSF, Minimum (600 mg QD 5 days): 54 nM; Ribociclib.CSF [1]: 0.0707; Ribociclib.Non-enhancing.tumor [1]: 6.684; Ribociclib.Plasma.conc [1]: 2.09 and 0.31; Ribociclib.Unbound.CSF [1]: 0.2008 and 0.0206; Ribociclib.Unbound.enhancing [1]: 1.4 and 0.419; Ribociclib.CSF [2]: 0.1931; Ribociclib.Non-enhancing.tumor [2]: 3.834; Ribociclib.Plasma.conc [2]: 0.402 and 0.1417; Ribociclib.Unbound.CSF [2]: 0.0928; Ribociclib.Unbound.enhancing [2]: 0.92 and 0.1576; Ribociclib.CSF [3]: 0.0543; Ribociclib.Non-enhancing.tumor [3]: 7.2608; Ribociclib.Plasma.conc [3]: 0.1944; Ribociclib.Unbound.CSF [3]: 0.0207; Ribociclib.Unbound.enhancing [3]: 0.4205; Ribociclib.CSF [4]: 0.4701 and 0.7139; Ribociclib.Non-enhancing.tumor [4]: 30.0728 and 22.3048; Ribociclib.Plasma.conc [4]: 3.4168 and 1.3485; Ribociclib.Unbound.CSF [4]: 0.2858 and 0.3152; Ribociclib.Unbound.enhancing [4]: 4.5 and 3.49; Ribociclib.CSF [5]: 0.1529 and 0.1758; Ribociclib.Non-enhancing.tumor [5]: 8.1928 and 11.9076 and 16.496; Ribociclib.Plasma.conc [5]: 1.151 and 0.8853 and 1.3745; Ribociclib.Unbound.CSF [5]: 0.1531 and 0.1613; Ribociclib.Unbound.enhancing [5]: 1.0167 and 1.1852 and 2.1093; Ribociclib.CSF [6]: 0.2760 and 0.5558 and 0.3667; Ribociclib.Non-enhancing.tumor [6]: 19.9804 and 11.7316 and 41.6376; Ribociclib.Plasma.conc [6]: 1.0816 and 1.6009; Ribociclib.Unbound.CSF [6]: 0.3027; Ribociclib.Unbound.enhancing [6]: 1.1229 and 3.39 and 0.0047; Ribociclib.CSF [7]: 0.1707 and 0.4561; Ribociclib.Non-enhancing.tumor [7]: 4.2684 and 4.8112; Ribociclib.Plasma.conc [7]: 0.7506 and 1.3586 and 0.9058; Ribociclib.Unbound.CSF [7]: 0.1543 and 0.2120 and 0.3373; Ribociclib.Unbound.enhancing [7]: 0.6494 and 0.9352 and 3.453; Ribociclib.CSF [8]: 0.0807 and 0.3122 and 0.4398; Ribociclib.Non-enhancing.tumor [8]: 12.238 and 4.126; Ribociclib.Plasma.conc [8]: 1.163 and 1.8703 and 1.3349; Ribociclib.Unbound.CSF [8]: 0.0799 and 0.2965; Ribociclib.Unbound.enhancing [8]: 1.348 and 0.6511 and 0.2648; Ribociclib.CSF [9]: 0.5436 and 0.0672 and 0.1419; Ribociclib.Non-enhancing.tumor [9]: 17.8508 and 1.3144 and 1.5982; Ribociclib.Plasma.conc [9]: 1.4899 and 0.302 and 1.3235; Ribociclib.Unbound.CSF [9]: 0.1898 and 0.0709 and 0.0882; Ribociclib.Unbound.enhancing [9]: 1.0559 and 0.5673 and 0.5436; Kp at 120 h (CSF / plasma, oral, 400 mg): 0.25; Kp uu at 120 h (CSF / plasma, oral, 400 mg): 1.15; Kp at 120 h (CSF / plasma, oral, 600 mg): 0.22; Kp uu at 120 h (CSF / plasma, oral, 600 mg): 0.84; concentration at 5 days (CSF, oral, Total Ribociclib concentration, Maximum, 400 mg QD 5 days): 216 nM; concentration at 5 days (CSF, oral, Total Ribociclib concentration, Median, 400 mg QD 5 days): 137 nM; concentration at 5 days (CSF, oral, Unbound Ribociclib concentration, Maximum, 400 mg QD 5 days): 201 nM; concentration at 5 days (CSF, oral, Unbound Ribociclib concentration, Maximum, 600 mg QD 5 days): 337 nM; concentration at 5 days (CSF, oral, Unbound Ribociclib concentration, Median, 400 mg QD 5 days): 82 nM; concentration at 5 days (CSF, oral, Unbound Ribociclib concentration, Median, 600 mg QD 5 days): 212 nM; concentration at 5 days (CSF, oral, Unbound Ribociclib concentration, Minimum, 400 mg QD 5 days): 21 nM; concentration at 5 days (CSF, oral, Unbound Ribociclib concentration, Minimum, 600 mg QD 5 days): 21 nM; Kp at 120 h [10]: 12.9; Kp uu at 120 h [10]: 5.1; Kp at 120 h [11]: 14.1; Kp uu at 120 h [11]: 5.67; concentration at 5 days (enhancing tumor, oral, Total Ribociclib concentration, Maximum, 400 mg QD 5 days): 9900 nM; concentration at 5 days (enhancing tumor, oral, Total Ribociclib concentration, Maximum, 600 mg QD 5 days): 49400 nM; concentration at 5 days (enhancing tumor, oral, Total Ribociclib concentration, Median, 400 mg QD 5 days): 4060 nM; concentration at 5 days (enhancing tumor, oral, Total Ribociclib concentration, Median, 600 mg QD 5 days): 14800 nM; concentration at 5 days (enhancing tumor, oral, Total Ribociclib concentration, Minimum, 400 mg QD 5 days): 2330 nM; concentration at 5 days (enhancing tumor, oral, Total Ribociclib concentration, Minimum, 600 mg QD 5 days): 753 nM; concentration at 5 days (enhancing tumor, oral, Unbound Ribociclib concentration, Maximum, 400 mg QD 5 days): 1400 nM; concentration at 5 days (enhancing tumor, oral, Unbound Ribociclib concentration, Maximum, 600 mg QD 5 days): 4500 nM; concentration at 5 days (enhancing tumor, oral, Unbound Ribociclib concentration, Median, 400 mg QD 5 days): 375 nM; concentration at 5 days (enhancing tumor, oral, Unbound Ribociclib concentration, Median, 600 mg QD 5 days): 1040 nM; concentration at 5 days (enhancing tumor, oral, Unbound Ribociclib concentration, Minimum, 400 mg QD 5 days): 158 nM; concentration at 5 days (enhancing tumor, oral, Unbound Ribociclib concentration, Minimum, 600 mg QD 5 days): 4.7 nM; Kp at 120 h [12]: 8.35; Kp uu at 120 h [12]: 3.19; Kp at 120 h [13]: 8.8; Kp uu at 120 h [13]: 3.78; concentration at 5 days (non-enhancing tumor, oral, Total Ribociclib concentration, Maximum, 400 mg QD 5 days): 15000 nM; concentration at 5 days (non-enhancing tumor, oral, Total Ribociclib concentration, Maximum, 600 mg QD 5 days): 41600 nM; concentration at 5 days (non-enhancing tumor, oral, Total Ribociclib concentration, Median, 400 mg QD 5 days): 3130 nM; concentration at 5 days (non-enhancing tumor, oral, Total Ribociclib concentration, Median, 600 mg QD 5 days): 11700 nM; concentration at 5 days (non-enhancing tumor, oral, Total Ribociclib concentration, Minimum, 400 mg QD 5 days): 1370 nM; concentration at 5 days (non-enhancing tumor, oral, Total Ribociclib concentration, Minimum, 600 mg QD 5 days): 1310 nM; concentration at 5 days (non-enhancing tumor, oral, Unbound Ribociclib concentration, Maximum, 400 mg QD 5 days): 1770 nM; concentration at 5 days (non-enhancing tumor, oral, Unbound Ribociclib concentration, Maximum, 600 mg QD 5 days): 2340 nM; concentration at 5 days (non-enhancing tumor, oral, Unbound Ribociclib concentration, Median, 400 mg QD 5 days): 170 nM; concentration at 5 days (non-enhancing tumor, oral, Unbound Ribociclib concentration, Median, 600 mg QD 5 days): 693 nM; concentration at 5 days (non-enhancing tumor, oral, Unbound Ribociclib concentration, Minimum, 400 mg QD 5 days): 65 nM; concentration at 5 days (non-enhancing tumor, oral, Unbound Ribociclib concentration, Minimum, 600 mg QD 5 days): 68 nM; concentration at 5 days (non-enhancing tumor, po, unbound drug concentration in the non-enhancing tumor regions, range, ribociclib 400 mg daily oral, 5 days): 65 to 1770 nM; concentration at 5 days (non-enhancing tumor, po, unbound drug concentration in the non-enhancing tumor regions, range, ribociclib 600 mg daily oral, 5 days): 68 to 2340 nM
